Measured values published in patent US20030157200A1, “Use of oligosaccharides to stimulate beta-endorphin production” (priority 2000, published 2003).

Test system: normal human keratinocytes
Assay: Synthesis/secretion of β-endorphin by normal human keratinocytes, assayed by EIA
Assay type: cell-based
Conditions: 24 h; for effect on the production of β-endorphin by normal human keratinocytes (in words): normal human keratinocytes in culture
Experimental: Norman human keratinocytes are cultivated to the point of confluence on a 24-well plate and then incubated in a culture medium for 24 hours in the presence of dibutiryl CAMP (2 mM), interleukin-1β (IL-1β) (500 pg/ml) and the test product, i.e. in this case either Tephrosia purpurea extracts according to Example 1, or stachyose, or ciceritol, at the doses indicated in Tables I, II and III respectively.
Each Tephrosia extract obtained by the process of Example 1 is provided accurately weighed and redissolved at a concentration of 50 mg/ml in an ethanol/water mixture (1/1).
Antiproteases—aprotinin 5 μg/ml, leupeptin 1 μg/ml and PMSF 1 mM —are added to each well in order to limit the action of the proteases.
Each experimental point is duplicated.
After incubation for 24 h, the culture supernatants are recovered and frozen at −80° C.
Positive stimulation controls are carried out in parallel, the cells being treated for 24 h, as above, with either IL-1β 500 pg/ml or dibutyryl CAMP 2 mM.
The β-endorphin secreted is assayed by EIA (kit from Peninsula Laboratoiries) and expressed in pg/ml.
The procedure followed is the same as in the experiments with Tephrosia purpurea extracts except that stachyose and ciceritol are used at the doses indicated in Table II, and the results obtained are indicated in Table II below.

## IL-1β: interleukin-1β, positive stimulation control
500 pg/ml, positive control, Table I batch B1 block, Control 3 ± 4
  β-endorphin secreted: 35 ± 5 pg/mL
500 pg/ml, positive control, Table I batch B2 experiment, Control 3 ± 4
  β-endorphin secreted: 35 ± 5 pg/mL
500 pg/ml, positive control, Table I batch B3 first series, Control 1 ± 1
  β-endorphin secreted: 17 ± 3 pg/mL
500 pg/ml, positive control, Table I batch B3 second series, Control 1 ± 3
  β-endorphin secreted: 25 ± 4 pg/mL
500 pg/ml, positive control, Table II ciceritol first series, Control 1 ± 2
  β-endorphin secreted: 17 ± 3 pg/mL
500 pg/ml, positive control, Table II ciceritol second series, Control 3 ± 3
  β-endorphin secreted: 35 ± 3 pg/mL
500 pg/ml, positive control, Table II stachyose experiment, Control 10 ± 3
  β-endorphin secreted: 25 ± 4 pg/mL
  effect on the production of β-endorphin by normal human keratinocytes (in words): stimulated the production of β-endorphin

## CO[C@H]1[C@H](O)[C@@H](O[C@H]2O[C@H](CO[C@H]3O[C@H](CO)[C@H](O)[C@H](O)[C@H]3O)[C@H](O)[C@H](O)[C@H]2O)[C@@H](O)[C@H](O)[C@@H]1O [Ciceritol, O-α-D-galactopyranosyl-[1→6]-O-α-D-galactopyranosyl-[1→2]-4-O-methyl-D-chiroinositol]
20 ng/ml, Table II ciceritol first series, Control 1 ± 2
  β-endorphin secreted: 8 ± 3 pg/mL
64 ng/ml, Table II ciceritol second series, Control 3 ± 3
  β-endorphin secreted: 44 ± 7 pg/mL
100 ng/ml, Table II ciceritol first series, Control 1 ± 2
  β-endorphin secreted: 8 ± 4 pg/mL
500 ng/ml, Table II ciceritol first series, Control 1 ± 2
  β-endorphin secreted: 9 ± 5 pg/mL
  effect on the production of β-endorphin by normal human keratinocytes (in words): stimulating effect

## CCCC(=O)Nc1ncnc2c1ncn2[C@@H]1O[C@@H]2COP(=O)(O)O[C@H]2[C@H]1OC(=O)CCC [dibutyryl cAMP]
2 mM, positive control, Table I batch B1 block, Control 3 ± 4
  β-endorphin secreted: 87 ± 12 pg/mL
2 mM, positive control, Table I batch B2 experiment, Control 3 ± 4
  β-endorphin secreted: 87 ± 12 pg/mL
2 mM, positive control, Table I batch B3 first series, Control 1 ± 1
  β-endorphin secreted: 10 ± 1 pg/mL
2 mM, positive control, Table I batch B3 second series, Control 1 ± 3
  β-endorphin secreted: 22 ± 1 pg/mL
2 mM, positive control, Table II ciceritol first series, Control 1 ± 2
  β-endorphin secreted: 10 ± 1 pg/mL
2 mM, positive control, Table II ciceritol second series, Control 3 ± 3
  β-endorphin secreted: 87 ± 8 pg/mL
2 mM, positive control, Table II stachyose experiment, Control 10 ± 3
  β-endorphin secreted: 22 ± 1 pg/mL
  effect on the production of β-endorphin by normal human keratinocytes (in words): stimulated the production of β-endorphin

## OC[C@H]1O[C@H](OC[C@H]2O[C@H](OC[C@H]3O[C@H](O[C@]4(CO)O[C@H](CO)[C@@H](O)[C@@H]4O)[C@H](O)[C@@H](O)[C@@H]3O)[C@H](O)[C@@H](O)[C@H]2O)[C@H](O)[C@@H](O)[C@H]1O [Stachyose, O-α-D-galactopyranosyl-[1→6]-O-α-D-galactopyranosyl-[1→6]-β-D-fructofuranosyl-α-D-glucopyranoside]
20 ng/ml, Table II stachyose experiment, Control 10 ± 3
  β-endorphin secreted: 16 ± 1 pg/mL
100 ng/ml, Table II stachyose experiment, Control 10 ± 3
  β-endorphin secreted: 22 ± 2 pg/mL
500 ng/ml, Table II stachyose experiment, Control 10 ± 3
  β-endorphin secreted: 30 ± 13 pg/mL
  effect on the production of β-endorphin by normal human keratinocytes (in words): stimulating effect
